# What was measured:
# [1] = tested on: human eye; conditions: topical administration of up to 20%; cited from earlier work
# [2] = tested on: bovine serum albumin (BSA); assay: SDS-PAGE assessment of BSA-BSA protein cross-links; assay type: biochemical; conditions: mixtures further incubated for 4 weeks; further: key: ++: strongly suppressed; +: suppressed; −: no suppression; *: moderate acceleration of the cross-linking
# Protocol: Additionally, protein cross-links were semi-quantitatively assessed by SDS PAGE gel chromatography.
# Protein-protein cross-links were characterized by SDS-PAGE. The incubation mixtures used for determination of the amino groups were further incubated for 4 weeks. An aliquot of the solution was applied to Pharmacia SDS FAST gel and the proteins were stained with Coomassie blue.
# [3] = tested on: bovine serum albumin (BSA); assay: Maillard fluorescence-based assay of AGEs formation, IC50 determination (BSA + D-ribose); conditions: inhibition of Maillard fluorescence development; 0.075 mM BSA, 50 mM D-ribose, 37° C., 5 days
# [4] = tested on: lysozyme; assay: ESI-MS of lysozyme glycoforms after incubation with D-ribose; conditions: 37° C., 5 days;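 further: lysozyme incubated with D-ribose, with or without anti-glycation agents, then separated by reversed-phase HPLC and analysed by electrospray mass spectrometry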
# [5] = tested on: bovine serum albumin (BSA); assay: Fluorescamine assay of free primary amino groups of BSA incubated with D-ribose; assay type: biochemical; conditions: free primary amino group on BSA after 5 days at 37° C.; agent at 16.8 times IC50; 64% without agent
# [6] = tested on: dopaminergic neurons; conditions: cited from earlier work
compound,measurement,setting,value
CC(C)NCC(O)c1ccc(O)c(O)c1.Cl [D-isoproterenol hydrochloride],effect on intra-ocular pressure,[1],did not lower intra-ocular pressure
N=C(N)NN [Aminoguanidine],Suppression of BSA-BSA cross-links,[2],+
same,IC50,[3],345 µM
same,amount of (AP-H2O) glycoform of lysozyme,"[4]; FIG. 2, in words",reduced
same,"Peak area as % of total area of all glycoforms, 14,569","[4]; lysozyme + 2D-ribose − 2H2O (14,569 Da)",5.7%
same,"Peak area as % of total area of all glycoforms, 14,551","[4]; lysozyme + 2D-ribose − 3H2O (14,551 Da)",1.2%
same,"Peak area as % of total area of all glycoforms, 14,533","[4]; lysozyme + 2D-ribose − 5H2O (14,533 Da)",1.1%
same,"Peak area as % of total area of all glycoforms, 14,515","[4]; lysozyme + 2D-ribose − 6H2O (14,515 Da)",0.7%
same,"Peak area as % of total area of all glycoforms, 14,419","[4]; lysozyme + D-ribose − 2H2O (14,419 Da)",2.6%
same,"Peak area as % of total area of all glycoforms, 14,401","[4]; lysozyme + D-ribose − 3H2O (14,401 Da)",2.1%
same,"Peak area as % of total area of all glycoforms, 14,437","[4]; lysozyme + D-ribose − H2O (14,437 Da)",26.2%
same,"Peak area as % of total area of all glycoforms, 14,496","[4]; lysozyme + D-ribose − H2O with one carboxymethylated Lys residue (14,496 Da)",1.4%
same,"Peak area as % of total area of all glycoforms, 14,364","[4]; lysozyme with one carboxymethylated Lys residue (14,364 Da)",3.2%
same,"Peak area as % of total area of all glycoforms, 14,305","[4]; unmodified lysozyme (14,305 Da)",54.5%
same,Unreacted amino group,[5],68%
NC[C@H](O)c1ccc(O)c(O)c1 [noradrenaline],EC50,"[6]; read-out: EC50, reduction of oxidative stress related to glycation",~0.3 µM
same,concentrations of intracellular reactive oxygen species,[6]; treatment with 1 μM,drastically reduced

# Source: patent US20080139664A1, “ANTI-GLYCATION AGENTS FOR PREVENTING AGE-, DIABETES-, AND SMOKING-RELATED COMPLICATIONS” (NATIONAL RESEARCH COUNCIL OF CANADA, priority 2001, published 2008)
